Patent US5663207A, “Gem-dichlorocyclopropanes as antitumor agents” (priority 1995, dated 1997)
Entries after “also recorded” stand apart in the source; their conditions may differ. Where two headings read alike, the source gives them in different places.

Legend:
[1] = Stability observed during isolation and storage; type: physicochemical; conditions: on concentration, drying or storage
Experimental: The structures of all compounds were supported by their proton NMR spectra, which were measured on either a Varian EM-360A or XL-300 spectrometer. The spectra are reported in parts per million in CDCl3 unless otherwise noted, with tetramethysilane as the internal standard. Infrared spectra were obtained from KBr pellets on a Beckman Acculab 1 spectrometer and were consistent with the assigned structures. Silica gel (for example, obtained commercially from J. T. Baker) of approximately 40 μm diameter was used for flash chromatography (STILL, W. C., KAHN, M. AND MITRA, A. (1978), "Rapid chromatographic technique for preparative separations with moderate resolutions", Journal of Organic Chemistry, 43, 2923), which was performed at 5-10 psi. Petroleum ether was of bp 30°-60° C. When necessary, solvents or reagents were dried by appropriate methods. Evaporations were carried out in vacuo on a rotary evaporator or under a stream of dry N2. Melting points were taken on a Thomas-Hoover capillary melting point apparatus and are uncorrected. Reaction progress and product purity were monitored by analytical TLC on strips of Eastman Kodak plastic-backed SiO2 60 F254 or Al2 O3 F254. Developed strips were viewed under light of 254 and 365 nm wavelengths. Elemental analyses were done by Midwest Microlab Ltd., Indianapolis, IN. Acceptable elemental results are denoted in Table I by the formula, followed by the elements analyzed. Melting points and yields of all compounds were based on pure samples unless otherwise noted, are listed in Table I. Para-Bromoanisole, p-methoxydeoxybenzoin, anisole, p-methoxybenzaldehyde, and 2,3-bis-(p-methoxyphenyl)-acrylic acid and trans-p-methoxystilbene (the olefin), were purchased from Aldrich & Co. The cyclopropanes 1,1-dichloro-cis-2-(p-hydroxyphenyl)-3-phenylcyclopropane (9), and its trans isomer 1,1-dichloro-trans-2-(p-Hydroxyphenyl)-3phenylcyclopropane (17) were prepared from Compounds 8 & 16, respectively. […] Tamoxifen was obtained from Stuart Pharmaceuticals, Division of ICI Americas, Inc., Wilmington, Del. 19897. MER 25 was obtained from the Merrell Dow Research Institute, Division of Merrell Dow Pharmaceuticals, Inc., Cincinnati, Ohio. Protein Assay Reagent, Pierce Chemical Co., Rockford, Ill. 61105. Diethylstilbestrol, β-estradiol, EDTA, DL-dithiothreitol, Sodium molybdate, and Tris (hydroxymethyl) aminomethane hydrochloride were purchased from Sigma Chemical Co., St. Louis, Mo. 63178.
Essentially, the intermediate olefin acids (Compounds 6 & 12) were obtained from a mixed Perkin and Knoevenagel-type condensation involving the reaction of p-methoxyaldehyde (Compound 4) with phenylacetic acid (Compound 5), or p-methoxyphenylacetic acid (Compound 11) in triethylamine and acetic anhydride. To prepare cis-p-methoxystilbene (Compound 7) or bis-(p-methoxy)-cis-stilbene (Compound 13). Decarboxylation of 6 & 12 with quinoline (prevents isomerizations; KLEIN, J. AND MEYER, A. Y. (1964), "The decarboxylation of α-cyano-and α-carboxycinnamic acids", Journal of Organic Chemistry, 29, 1038), and copper chromite at elevated temperature provided 7 & 13. High temperature during distillation caused 8% isomerization to the trans-isomer (15), which was isolated by column chromatography. Dichlorocarbene generation used the catalytic phase transfer method (21, 37) (used extensively in our laboratory) of 50% aqueous solution of NaOH, CHCl3 and benzyltriethylammonium chloride (TEBA) as the anion transfer agent. […]

estrogen receptor [2] = target: T1, estrogen receptor (Rattus norvegicus, UniProt P06211); conditions: relative to estradiol = 100%; Day et al., J. Med. Chem. 34, 842-851 (1991); cited from earlier work
T1 construct: ovariectomized rat uterine cytosolic estrogen receptor preparation; from tissue; host or cells: uterine cytosol of ovariectomized Sprague-Dawley rats (immature rats from Sasco are named as uterus source, mature ovariectomized rats)
T1 sequence (P06211 1-600): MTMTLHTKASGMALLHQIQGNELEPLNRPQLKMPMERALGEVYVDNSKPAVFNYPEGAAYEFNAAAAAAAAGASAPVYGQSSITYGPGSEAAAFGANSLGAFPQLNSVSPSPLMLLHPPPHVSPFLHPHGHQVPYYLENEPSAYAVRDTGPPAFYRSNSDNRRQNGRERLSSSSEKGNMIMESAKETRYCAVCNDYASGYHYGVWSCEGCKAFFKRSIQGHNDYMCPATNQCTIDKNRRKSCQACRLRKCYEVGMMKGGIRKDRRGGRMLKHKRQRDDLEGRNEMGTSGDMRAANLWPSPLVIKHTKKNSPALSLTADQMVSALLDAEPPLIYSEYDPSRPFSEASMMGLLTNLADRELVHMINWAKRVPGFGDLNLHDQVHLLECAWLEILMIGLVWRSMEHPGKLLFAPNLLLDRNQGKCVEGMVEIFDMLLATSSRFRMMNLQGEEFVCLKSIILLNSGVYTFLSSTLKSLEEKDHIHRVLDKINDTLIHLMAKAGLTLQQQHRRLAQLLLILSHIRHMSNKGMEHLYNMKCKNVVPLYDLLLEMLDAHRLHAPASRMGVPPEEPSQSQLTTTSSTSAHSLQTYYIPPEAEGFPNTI

[3] = tested on: MCF-7 human breast cancer cells; conditions: cited from earlier work; for MCF-7 Inhibition: 10^-6 M, Day et al., J. Med. Chem. 34, 842-851 (1991)
[4] = tested on: MCF-7 human breast cancer cells; test: In vitro MCF-7 human breast cancer cell growth inhibition assay; type: cell-based
From the text: (§1) The biological evaluation of the test compounds consisted of the in vitro rat cytosolic estradiol receptor binding assay, the in vivo immature mouse uterotrophic (estrogenic) and antiuterotrophic (antiestrogenic) assays, and the in vitro suppression of the proliferation of the ER positive MCF-7 human breast cancer cell line. Estradiol (pure agonist), TAM (agonist in mice and antagonist in MCF-7), MER 25 (pure antagonist) and Analog II (antagonist in mice) were used in the assay as standards.
MCF-7 (estrogen-receptor positive) human breast cancer cells (obtained from the Michigan Cancer Foundation, Detroit, Mich.) were grown at 37° C. in 75 cm^2 tissue culture (T-75) flasks, as monolayer cultures in RPMI 1640 phenol red-free media supplemented with 2 mM L-glutamine, gentamicin (50 μg/mL), penicillin (100 units/mL), streptomycin (100 μg/mL ) and calf serum (5%). Cultures were grown in an incubator 37° C. in a humid 5% CO2 atmosphere, and fed on alternate days. Expotential growth was maintained by subculturing at eight day intervals when the cells per T-75 flask reached 10 to 12×10^6 cells. Cells were trypsinized, washed and plated in multiwell plates at a density of 5×10^4 cells/well in 3 mL of RPMI 1640 media. The cells were allowed to attach and were in logarithmic growth when the test compounds were added. The test compounds (10^-6 M) in the presence or absence of a 10-fold lower dose of estradiol were dissolved in a polyethylene glycol 400: ethanol (55:45) mixture and added in the culture media in duplicate. Control samples received vehicle alone at the same concentration used in the treatment groups. The final concentration of the vehicle mixture was 0.1% of the incubation media. Cell growth was measured on alternate days using the hemocytometric trypan blue exclusion method. Percent inhibition of MCF-7 cells was calculated as the ratio of the control mean cell count per well minus the treatment group mean cell count per well to the control mean cell count per well, multiplied by 100.
^b % MCF7 inhibition was calculated as follows: […]
Thirteen compounds, Analog II, TAM, and MER 25 were tested for their antiproliferative activity in the MCF-7 human breast cancer cell line (Table II). Compounds were tested at a concentration of 10^-6 M in the presence or absence of 10^-7 M estradiol to assess their ability to alter the growth of the calls (Table II). The 10^-6 M concentration was selected since it was reported that the inhibition of the MCF-7 cells by antiestrogens and TAM occurred either at that concentration or less, and were both selective and estrogen receptor specific. Concentrations of antiestrogens greater than 5×10^-6 M were reported to have nonspecific cytotoxic effects (BRIAND, P. AND […], A. E. (1984), "Effect of estrogen and antiestrogen on the human breast cancer cell line MCF-7 adapted to growth at low serum concentration", Cancer Research, 44, 1114).

[5] = tested on: Immature Swiss-Webster female mice (uterine weight); test: Uterotrophic assay for estrogenic activity in immature mice; type: in vivo, mouse (Swiss-Webster); conditions: doses of 5, 25 and 100 μg (total dose)
From the text: The biological evaluation of the test compounds consisted of the in vitro rat cytosolic estradiol receptor binding assay, the in vivo immature mouse uterotrophic (estrogenic) and antiuterotrophic (antiestrogenic) assays, and the in vitro suppression of the proliferation of the ER positive MCF-7 human breast cancer cell line.
(§2) Vital-free immature female Swiss-Webster mice were obtained at 17-19 days of age from Sasco weighing 8-10 g, and were used in the uterotrophic and antiuterotrophic assays. Immature female Sprague-Dawley rats, obtained at 17-19 days of age from Sasco, weighing 28-33 g, were used as sources of uteri for the estradiol receptor binding assay. Animals were housed in wire topped polycarbonate cages at six animals per cage, with the environment controlled at 25° C. and a 12 h light/dark cycle. The animals received a diet of Wayne Lab Blox rodent chow and tap water ad libitum.
Immature Swiss-Webster female mice (8-15 g) at 17-19 days of age were used. Estradiol was used in the dosage range of […] (total dose) as the assay standard. Each cyclopropyl analogue was examined at doses of 5, 25, and 100 μg (total dose). […] Estrogenic activity was measured as an increase in uterine weight produced by each test compound.

estrogen receptor [6] = target: T1, estrogen receptor; test: Receptor binding assay: displacement of [3H]-estradiol from rat uterine cytosol; parameters: species or system rat (Sprague-Dawley); conditions: relative to estradiol = 100%; average of duplicate determinations minus nonspecific binding
From the text: as §1, §2
The RBAs of the test compounds were determined by the displacement of [^3 H]-estradiol in vitro, as described previously (DAY, B. W., […], R. A., JAIN, P., PENTO, J. T., MOUSISSIAN, G. K. AND MEYER, K. L. (1991), "Synthesis and biological evaluation of a series of 1,1-dichloro-2,2,3-triarylcyclopropanes as pure antiestrogens", Journal of Medicinal Chemistry, 34, 842; KORENMAN, S. G. (1969), "Comparative binding affinity of estrogens and its relation to estrogenic potency", Steroid, 13, 163). Mature female Sprague-Dawley rats were ovariectomized at least two weeks prior to the receptor binding experiment. Each test compound was assayed at three concentrations in duplicate over a range of 10^-3 -10^-5 M and 10^-6 -10^-8 M for the estradiol standard. The non-specific binding was determined by a parallel incubation of each compound with the addition of diethylstilbestrol to give a final concentration of 2×10^-5 M DES which was sufficient to saturate all the estrogen receptors present in the cytosolic fraction. Specific displacement for each compound was determined by subtraction of nonspecific displacement from total displacement. The [^3 H]-estradioldisplacement curve for each test compound was determined by linear repression analysis and plotted graphically. The relative binding affinity for each compound was calculated (BLISS, C.I. (1967), "The statistics in biology", McGraw Hill, Inc: New York).
^a Determined by competitive radiometric binding assay with rat
uterine cytosol as a source of receptor, [^3 H]estradiol as tracer,
and dextrancoated charcoal as absorbant for free ligand.
^c Binding affinities are expressed relative to that of estradiol =
100% (RBA = relative binding affinity) and are the average of duplicate
determinations minus nonspecific binding.
The relative binding affinities (RBAs), as determined by the competitive radiometric binding assay and measured by [^3 H]-estradiol displacement from the ovariectomized rat uterine cytosolic estrogen receptor preparation, after subtracting non-specific receptor binding, were calculated for all of the synthesized target compounds, TAM, MER 25, Analog II, and estradiol. The displacement curves were plotted as percent receptor-bound [^3 H]-estrodiol versus concentration of test compounds (not shown) and the receptor binding affinity of each compound is presented in Table II.

## Oc1ccc([C@H]2[C@@H](c3ccccc3)C2(Cl)Cl)cc1 (relative stereo) [Compound 9, 1,1-dichloro-cis-2-(p-hydroxyphenyl)-3-phenylcyclopropane]
[1]
  stability (in words): instability to air and light; also recorded: underwent gradual color changes when concentrated

## Oc1ccc([C@H]2[C@H](c3ccccc3)C2(Cl)Cl)cc1 (relative stereo) [Compound 17, 1,1-dichloro-trans-2-(p-hydroxyphenyl)-3-phenylcyclopropane]
[1]
  stability (in words): underwent gradual color changes when concentrated

## ClC1(Cl)[C@H](c2ccccc2)[C@@H]1c1ccccc1 [Analog II]
Estrogen receptor [2]
  RBA (relative binding affinity): 0.01%
[3]
  MCF-7 Inhibition: 20.4%

## Oc1ccc(C2(c3ccc(O)cc3)C(c3ccccc3)C2(Cl)Cl)cc1 (centres unmarked) [Compound 36]
[1]
  stability (in words): Drying of phenol 36 at a high temperature resulted in the formation of an indene

## CC(=O)Oc1ccc(C2(c3ccc(OC(C)=O)cc3)C(c3ccccc3)C2(Cl)Cl)cc1 (centres unmarked) [Compound 37, 1,1-Dichloro-2,2-bis-(p-acetoxyphenyl)-3-phenylcyclopropane]
[4]; 10^-6 M
  effect on MCF-7 cell growth (in words): did not alter cell growth
[4]; Homo sapiens, MCF7, read-out: MCF-7 Inhibition
  inhibition at 1 µM: < 10%
[5]
  uterine weight response (estrogenic activity, in words): well below the control group
Estrogen receptor [6]
  RBA (relative binding affinity): 0.08%

## CC/C(=C(\c1ccccc1)c1ccc(OCCN(C)C)cc1)c1ccccc1 [Tamoxifen]
[3]
  MCF-7 Inhibition: 25.6%
[3]; reported as selective and estrogen receptor specific
  concentration at which inhibition of MCF-7 cells occurred: ≤ 10^-6 M
